Measurements reported in patent US20090054316A1, “AGENT FOR CONTROL OF FUNCTION OF ANTIGEN-PRESENTING CELL” (RIKEN, priority 2005, published 2009).

Key:
[1] = test system: bone marrow-derived dendritic cells (BMDC); assay: Expression of MHC class I, class II and CD86 molecules on the cell surface of dendritic cells treated with a zinc ion chelator (FACS); format: cell-based, mouse; conditions: for expression of MHC class II molecule on BMDC: TPEN 0-2 μM for 6 to 12 hours (dose and treatment time dependency), LPS 100 ng/mL as activation control, FACS
Method: Dendritic cells, a type of antigen-presenting cells, were treated with N,N,N′,N′-tetrakis(2-pyridylmethyl)ethylenediamine (TPEN), a zinc ion chelator, and examined for the expression of MHC class I molecule, class II molecule and CD86 molecule on the cell surface.
(§1) Bone marrow cells were obtained from a C57BL/6 mouse (obtained from Clea Japan) and subjected to cell culture using an RPMI medium (SIGMA, R8758) supplemented with 10% FCS (EQUITECH-BIO Inc., #SFB-30-1388) and granulocyte macrophage colony stimulating factor (GM-CSF) in a 5% CO2 environment at 37° C. for 6 days to induce the differentiation of bone marrow-derived dendritic cells (BMDC). To this BMDC, TPEN (SIGMA, P4413) was added for 6 hours to 12 hours to obtain concentrations of 0-2 μM in the medium. Also prepared was a group in which lipopolysaccharide (LPS; 100 ng/mL; SIGMA, L2637, E. Coli O55:B5) was added for control of antigen-presenting cell activation. […] When the cells were treated with the zinc ion chelator, the expression of MHC class II molecule on BMDC was enhanced as with LPS.

[2] = test system: dendritic cell; assay: Dendritic cell activation or inactivation, same in vitro system as Examples 1 and 2; format: cell-based, mouse; conditions: treatment with 1-10 μM
Method: as §1
In the same experiment (in vitro system) as Examples 1 and 2, dendritic cell activation or inactivation was observed by a treatment with 1-10 μM zinc ion or TPEN.

[3] = dendritic cells treated with zinc ion chelator, FIG. 1

| Molecule | expression of MHC class II molecule on BMDC [1] | expression of CD86 molecule on the cell surface [1, 3] | expression of MHC class I molecule on the cell surface [1, 3] | dendritic cell activation or inactivation [2] |
| --- | --- | --- | --- | --- |
| c1ccc(CN(CCN(Cc2ccccn2)Cc2ccccn2)Cc2ccccn2)nc1 [TPEN, N,N,N′,N′-tetrakis(2-pyridylmethyl)ethylenediamine] | enhanced | enhanced | enhanced | observed |
| O=S(=O)([O-])[O-].[Zn+2] [zinc ion, ZnSO4] |  |  |  | observed |
| lipopolysaccharide [LPS] | enhanced |  |  |  |
